According to patent publication US20240180160A1, “ANTIVIRAL POLYMER MATERIAL” (VALE BROTHERS LIMITED, priority 2021, published 2024):
Where two headings read alike, the source gives them in different places.

Experiments:
[1] = tested on: CRFK cells; experiment: Cytotoxicity control on the titration cells; details: 0.7% Formaldehyde, neutralised
Procedure: (§1) In addition, the formaldehyde cytotoxicity of neutralised formaldehyde is determined to measure assay sensitivity.
(§2) TCID50 was determined by the method of Karber (1Kärber, G.: Beitrag zur Kollektiven Behandlung Pharmakologischer Reihenversuche. Arch. Exp. Path. Pharmak. 162 (1931): 480-487.). Test virus suspension has at least a concentration which allows the determination of a 4 log10 reduction of the virus titre. The number of infectious virus particles is quantified by using the Median Tissue Culture Infectious Dose (TCID50) assay. The assay works by adding a serial dilution of the virus sample to cells in a 96 well plate format. The type of cell is specifically selected to show a cytopathic effect (CPE), i.e. morphological changes upon infection with the virus or cell death. After an incubation period, the cells are inspected for CPE or cell death and each well is classified as infected or not infected. Colorimetric or fluorometric readouts are also possible, which can increase assay sensitivity. The dilution, at which 50% of the wells show a CPE, is used to calculate the TCID50 of the virus sample. This calculation can generally be done by a variety of mathematical approaches, e.g., the Spearman-Karber method or the Reed-Muench method. Virus quantity is expressed as TCID50/ml.

[2] = tested on: Feline coronavirus ATCC VR-989; details: 0.7% Formaldehyde
Procedure: as §1, §2

C=O [Formaldehyde, formaldehyde]
Cytotoxicity TCID50/ml [1]: 3.16E+02 TCID50/ml | Cytotoxicity log (TCID50/ml) [1]: 2.50 log | TCID50/ml (recovered virus) ([2]; exposure time 30 mins): 3.16E+02 TCID50/ml | log (TCID50/ml) ([2]; exposure time 30 mins): 2.50 log | log difference ([2]; exposure time 30 mins): 3.17 log | TCID50/ml (recovered virus) ([2]; exposure time 60 mins): 3.16E+02 TCID50/ml | log (TCID50/ml) ([2]; exposure time 60 mins): 2.50 log | log difference ([2]; exposure time 60 mins): 3.17 log
